# Experimental data: ChEMBL document CHEMBL4482318, “Sepiapterin reductase inhibitors” (2018)
# Activity calls are given as the source filed them.
# Key:
# Type in all cases: functional, organism-based
# [1] = system: Rattus norvegicus; assay: Analgesic activity in rat model of chronic constriction injury-induced neuropathic pain assessed as increase in paw withdrawal threshold at 9.5 mg/kg, po administered via gavage once daily for 3 days by Von frey filament test
# [2] = system: Rattus norvegicus; assay: Analgesic activity in rat model of spared nerve injury-induced neuropathic pain assessed as increase in paw withdrawal threshold at 20 mg/kg, po administered via gavage once daily for 3 days by Von frey filament test
# [3] = system: Rattus norvegicus; assay: Analgesic activity in rat model of chronic constriction injury-induced neuropathic pain assessed as increase in paw withdrawal threshold at 10 mg/kg, po administered via gavage once daily for 3 days by Von frey filament test
# [4] = system: Rattus norvegicus; assay: Analgesic activity in rat model of spared nerve injury-induced neuropathic pain assessed as increase in paw withdrawal threshold at 10 mg/kg, po administered via gavage once daily for 3 days by Von frey filament test
# [5] = system: Rattus norvegicus; assay: Analgesic activity in rat model of spared nerve injury-induced neuropathic pain assessed as increase in paw withdrawal threshold at 15 mg/kg, po administered via gavage once daily for 3 days by Von frey filament test
structure (smiles),measurement,setting,value
Cc1c(C(=O)N2CCN(C3CC(F)(F)C3)CC2)nnn1-c1nn2cccc2c(=O)[nH]1,Activity,[1],Active
Cc1c(C(=O)N2CCN(C3CC(F)(F)C3)CC2)cnn1-c1nn2cccc2c(=O)[nH]1,Activity,[1],Active
Cc1c(C(=O)N2CCC(c3nc(C#N)co3)CC2)cnn1-c1nn2cccc2c(=O)[nH]1,Activity,[2],Active
Cc1c(C(=O)N2CC(c3ccnc(F)c3)C2)cnn1-c1nn2cccc2c(=O)[nH]1,Activity,[3],Active
Cc1c(C(=O)N2CCN(C3CCC3(F)F)CC2)nnn1-c1nn2cccc2c(=O)[nH]1 (configuration not stated),Activity,[4],Active
Cc1c(C(=O)N2CCC2c2ccc(F)nc2)cnn1-c1nn2cccc2c(=O)[nH]1 (configuration not stated),Activity,[4],Active
Cc1c(C(=O)N2CC3CC(C2)N3C2CC2)cnn1-c1nn2cccc2c(=O)[nH]1,Activity,[5],Active
